Measurements published in patent US9771375B2, “Indazole compounds useful as ketohexokinase inhibitors” (JANSSEN PHARMACEUTICA NV, priority 2010, dated 2017).
Counter-ions that a name gives are not always drawn.

Molecular target: KHK (Homo sapiens (Human), UniProt P50053)
Test: In Vitro KHK Enzyme Assay (HTMS detection of fructose-1-P)
Type: biochemical
Conditions: 100 μM ATP, 2 nM KHK, 60 min at 25° C., 12-point dose-response
Experimental: An enzymatic assay was developed to measure KHK-mediated conversion of D-fructose to Fructose-1-P (F-1-P) using High Throughput Mass Spectroscopy (HTMS) as a means of product detection. This assay served as a primary screen to evaluate the ability to inhibit KHK enzyme activity and it has been adapted to high throughput mass spectrometry (HTMS, BioTrove RapidFire™) format for higher throughput.
The compounds to be tested were dosed in 12-points concentration from 511 μM to 0.5 μM. […] The assay was carried out in 384-well plate format.

Chain of KHK (P50053 whole entry): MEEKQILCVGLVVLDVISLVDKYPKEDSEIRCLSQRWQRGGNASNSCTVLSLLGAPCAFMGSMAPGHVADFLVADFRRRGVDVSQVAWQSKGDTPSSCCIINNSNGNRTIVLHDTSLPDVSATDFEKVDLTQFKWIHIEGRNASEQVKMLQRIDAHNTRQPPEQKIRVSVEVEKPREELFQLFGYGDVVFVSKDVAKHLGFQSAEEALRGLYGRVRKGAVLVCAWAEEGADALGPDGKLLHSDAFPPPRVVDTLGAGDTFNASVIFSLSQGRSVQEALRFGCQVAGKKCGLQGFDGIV

`Cc1nn(-c2ccccc2)c2cc(N3CCC(N4CCNCC4)CC3)ccc12` [Compound 57, 3-Methyl-1-phenyl-6-(4-piperazin-1-yl-piperidin-1-yl)-1H-indazole hydrochloride] gave an IC50 of 3.2 µM.
